Laboratory results from BindingDB's records for doi:10.1021/jm201708h (Progen Pharmaceuticals, 2012).
pKi: −log10 of the molar value.

Target: T1, Heparanase (Homo sapiens, UniProt Q9Y251)
T1 sequence (Q9Y251 whole entry): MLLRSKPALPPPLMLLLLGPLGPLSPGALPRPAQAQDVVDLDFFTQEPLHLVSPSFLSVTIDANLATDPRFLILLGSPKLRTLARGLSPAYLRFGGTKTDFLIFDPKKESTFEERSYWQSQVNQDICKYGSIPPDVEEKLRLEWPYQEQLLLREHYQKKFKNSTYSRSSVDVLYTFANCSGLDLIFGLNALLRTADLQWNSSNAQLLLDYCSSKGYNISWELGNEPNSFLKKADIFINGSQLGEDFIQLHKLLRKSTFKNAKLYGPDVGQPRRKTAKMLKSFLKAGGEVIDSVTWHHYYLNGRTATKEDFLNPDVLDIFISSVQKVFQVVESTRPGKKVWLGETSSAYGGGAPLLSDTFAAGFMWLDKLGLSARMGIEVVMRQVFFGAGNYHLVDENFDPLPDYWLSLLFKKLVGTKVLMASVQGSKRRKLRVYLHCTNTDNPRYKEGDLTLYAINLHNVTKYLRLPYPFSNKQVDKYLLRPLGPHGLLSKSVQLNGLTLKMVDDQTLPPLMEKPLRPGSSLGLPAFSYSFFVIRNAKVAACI
Assay: Inhibition of human recombinant heparanase after 2 to 24 hrs by WST1 dye based fondaparinux assay

O=P(O)(O)OC[C@H]1O[C@H](O[C@@H]2[C@H](OS(=O)(=O)O)[C@@H](O[C@@H]3[C@H](OS(=O)(=O)O)[C@@H](O[C@@H]4[C@H](OS(=O)(=O)O)[C@@H](O[C@@H]5[C@@H](OS(=O)(=O)O)O[C@H](COS(=O)(=O)O)[C@@H](OS(=O)(=O)O)[C@@H]5OS(=O)(=O)O)O[C@H](COS(=O)(=O)O)[C@H]4OS(=O)(=O)O)O[C@H](COS(=O)(=O)O)[C@H]3OS(=O)(=O)O)O[C@H](COS(=O)(=O)O)[C@H]2OS(=O)(=O)O)[C@@H](OS(=O)(=O)O)[C@@H](OS(=O)(=O)O)[C@@H]1OS(=O)(=O)O [PI-88]
pKi: 8.10
